Data published in US8877741B2, “Pyrrolidine derivatives, pharmaceutical compositions and uses thereof” (Boehringer Ingelheim International GmbH, priority 2013, dated 2014).

target: human ACC2 (Homo sapiens (Human), UniProt O00763); experiment: ACC2 assay, spectrophotometric 384 well assay (NADH-linked kinetic method); format: biochemical; settings: human ACC2 construct lacking the 128 N-terminal amino acids; coupled lactate dehydrogenase/pyruvate kinase reaction, 340 nm, 25° C.
Procedure, shortened: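 ADP formation was monitored as NADH consumption at 340 nm for 15 min at 25 °C, using baculovirus-expressed human ACC2 missing its first 128 amino acids, with 500 μM ATP and 2000 μM each of acetyl-CoA and NADH (final). IC50 was fitted by non-linear regression on low-control-subtracted slopes.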

Sequence of human ACC2 (O00763 129-2458): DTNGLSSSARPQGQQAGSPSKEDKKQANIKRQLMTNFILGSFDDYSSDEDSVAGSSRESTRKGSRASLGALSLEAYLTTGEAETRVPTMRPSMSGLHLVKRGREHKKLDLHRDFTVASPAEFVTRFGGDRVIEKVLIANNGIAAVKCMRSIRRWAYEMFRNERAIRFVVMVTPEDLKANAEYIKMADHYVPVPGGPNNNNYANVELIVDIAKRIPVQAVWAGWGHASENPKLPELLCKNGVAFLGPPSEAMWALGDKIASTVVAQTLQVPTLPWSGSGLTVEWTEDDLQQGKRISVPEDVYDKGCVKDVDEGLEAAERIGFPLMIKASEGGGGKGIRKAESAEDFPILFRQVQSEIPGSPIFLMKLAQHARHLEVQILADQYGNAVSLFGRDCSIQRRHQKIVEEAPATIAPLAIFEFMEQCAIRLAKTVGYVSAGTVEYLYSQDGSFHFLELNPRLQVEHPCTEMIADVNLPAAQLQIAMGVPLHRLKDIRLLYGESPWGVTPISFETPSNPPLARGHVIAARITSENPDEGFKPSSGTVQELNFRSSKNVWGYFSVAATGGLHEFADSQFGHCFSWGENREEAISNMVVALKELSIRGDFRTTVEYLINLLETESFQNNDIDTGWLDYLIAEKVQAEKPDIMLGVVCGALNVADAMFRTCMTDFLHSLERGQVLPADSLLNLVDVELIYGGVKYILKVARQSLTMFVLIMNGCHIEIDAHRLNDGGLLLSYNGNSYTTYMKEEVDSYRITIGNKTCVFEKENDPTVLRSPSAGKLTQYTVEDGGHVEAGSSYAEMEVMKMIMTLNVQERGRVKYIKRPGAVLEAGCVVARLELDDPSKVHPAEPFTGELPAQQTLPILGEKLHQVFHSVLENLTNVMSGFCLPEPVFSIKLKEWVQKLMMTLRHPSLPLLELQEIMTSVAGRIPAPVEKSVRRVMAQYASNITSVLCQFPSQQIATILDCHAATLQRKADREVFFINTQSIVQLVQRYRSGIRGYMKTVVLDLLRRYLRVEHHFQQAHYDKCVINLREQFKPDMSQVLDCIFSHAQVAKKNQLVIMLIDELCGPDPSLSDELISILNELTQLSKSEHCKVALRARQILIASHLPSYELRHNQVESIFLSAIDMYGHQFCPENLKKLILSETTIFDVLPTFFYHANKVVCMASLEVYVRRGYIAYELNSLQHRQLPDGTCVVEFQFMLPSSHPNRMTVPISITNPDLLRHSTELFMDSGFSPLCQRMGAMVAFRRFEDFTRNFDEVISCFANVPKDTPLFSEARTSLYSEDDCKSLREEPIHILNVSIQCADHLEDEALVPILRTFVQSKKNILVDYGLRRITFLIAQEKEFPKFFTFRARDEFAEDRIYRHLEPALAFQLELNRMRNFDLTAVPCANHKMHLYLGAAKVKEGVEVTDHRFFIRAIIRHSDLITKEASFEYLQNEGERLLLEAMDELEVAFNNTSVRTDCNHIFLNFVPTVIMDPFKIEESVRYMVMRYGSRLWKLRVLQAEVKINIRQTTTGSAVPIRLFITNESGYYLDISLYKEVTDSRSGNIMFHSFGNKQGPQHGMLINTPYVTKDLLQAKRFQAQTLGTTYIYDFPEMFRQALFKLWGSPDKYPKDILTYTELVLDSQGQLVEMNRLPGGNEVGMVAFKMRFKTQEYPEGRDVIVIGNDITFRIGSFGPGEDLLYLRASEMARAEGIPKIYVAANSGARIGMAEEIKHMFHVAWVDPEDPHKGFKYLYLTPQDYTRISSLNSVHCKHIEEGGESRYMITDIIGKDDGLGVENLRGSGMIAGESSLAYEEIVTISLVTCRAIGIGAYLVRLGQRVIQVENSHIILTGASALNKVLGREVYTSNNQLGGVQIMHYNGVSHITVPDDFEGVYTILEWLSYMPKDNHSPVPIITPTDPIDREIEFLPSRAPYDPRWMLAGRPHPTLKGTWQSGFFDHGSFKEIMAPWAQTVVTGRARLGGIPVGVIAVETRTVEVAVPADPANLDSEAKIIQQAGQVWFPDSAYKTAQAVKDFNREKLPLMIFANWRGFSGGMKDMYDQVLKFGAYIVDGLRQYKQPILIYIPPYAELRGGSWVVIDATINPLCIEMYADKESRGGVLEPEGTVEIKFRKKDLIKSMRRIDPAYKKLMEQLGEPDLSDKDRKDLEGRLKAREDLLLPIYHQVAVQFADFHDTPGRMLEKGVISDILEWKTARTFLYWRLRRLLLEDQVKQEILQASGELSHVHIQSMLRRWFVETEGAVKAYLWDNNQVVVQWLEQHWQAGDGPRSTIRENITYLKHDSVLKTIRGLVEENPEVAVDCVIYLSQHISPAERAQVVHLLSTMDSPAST

Row | SMILES | IC50 [nM]
1 | CCCOc1ccc(N2CCC(Oc3ccc([C@H](C)NC(C)=O)cc3)C2)c(C#N)n1 (stereo partly shown) [Example 1.13] | 345
2 | CC(=O)N[C@@H](C)c1ccc(O[C@@H]2CCN(c3ccnc(N(C)C4CCCC4)c3)C2)cc1 [Example 10.9] | 849
3 | CC(=O)N[C@@H](C)c1ccc(O[C@@H]2CCN(c3cccc(N(C)C4CCCC4)n3)C2)cc1 [Example 10.29] | 170
4 | C[C@H](NC(=O)N(C)C)c1ccc(OC2CCN(c3ccc(F)c(C(F)(F)F)n3)C2)cc1 (stereo partly shown) [Example 1.58] | 55
5 | CC(=O)N[C@@H](C)c1ccc(OC2CCN(c3cccc(C4CCC4)n3)C2)cc1 (stereo partly shown) [Example 1.86] | 89
6 | CC(=O)N[C@@H](C)c1ccc(O[C@@H]2CCN(c3cccc(N(C)CC4CC4)n3)C2)cc1 [Example 10.2] | 208
7 | CC(=O)Nc1nc(C)c(C(=O)N[C@@H](C)c2ccc(O[C@@H]3CCN(c4ccnc(OC(C)C)c4)C3)cc2)s1 [Example 1.49] | 179
8 | CC(=O)N[C@@H](C)c1ccc(OC2CCN(c3cc(OCC(F)F)ncc3C)C2)cc1 (stereo partly shown) [Example 1.92] | 524
9 | C[C@H](NC(=O)N(C)C)c1ccc(OC2CCN(c3ccnc(N4CCC(F)(F)C4)c3F)C2)cc1 (stereo partly shown) [Example 3.22] | 50
10 | C[C@H](NC(=O)c1ccnc(F)c1)c1ccc(OC2CCN(c3cccc(C(F)(F)F)n3)C2)cc1 (stereo partly shown) [Example 2.54] | 455
11 | CC(=O)N[C@@H](C)c1ccc(O[C@@H]2CCN(c3ccnc(OC4CCCC4)c3Cl)C2)cc1 [Example 9.81] | 53
12 | C[C@H](NC(=O)c1ccnnc1)c1ccc(OC2CCN(c3ccnc(OCC4CC4)c3)C2)cc1 (stereo partly shown) [Example 2.88] | 278
13 | CC(=O)N[C@@H](C)c1ccc(OC2CN(c3ccc(OCC4CC4(F)F)cn3)C[C@H]2F)cc1 (stereo partly shown) [Example 1.94] | 94
14 | COc1c(N2CC[C@@H](Oc3ccc([C@H](C)NC(C)=O)cc3)C2)ccnc1OCC1CC1 [Example 1.127] | 31
15 | CC(=O)N[C@@H](C)c1ccc(O[C@@H]2CCN(c3cc(NCC4CC4)ncc3F)C2)cc1 [Example 10.26] | 755
16 | COCCN(C)C(=O)N[C@@H](C)c1ccc(OC2CCN(c3ccc(OCC4CC4(F)F)cn3)C2)cc1 (stereo partly shown) [Example 3.7] | 444
17 | CNC(=O)N[C@@H](C)c1ccc(OC2CCN(c3ccc(OCC4CC4(F)F)cn3)C2)cc1 (stereo partly shown) [Example 3.20] | 92
18 | C[C@H](NC(=O)N(C)C)c1ccc(OC2CCN(c3ccnc(OCC(F)F)c3)C2)cc1 (stereo partly shown) [Example 3.17] | 138

Row | SMILES | IC50 [nM]
19 | CC(=O)N[C@@H](C)c1ccc(O[C@@H]2CCN(c3ccnc(C(=O)N4CCc5c4ccc(F)c5F)c3)C2)cc1 [Example 8.5] | 530
20 | CCOc1cccc(N2CCC(Oc3ccc([C@H](C)NC(C)=O)cc3)C2)n1 (stereo partly shown) [Example 1.62] | 802
21 | CCOc1cc(N2CC[C@@H](Oc3ccc([C@H](C)NC(=O)c4sc(NC(C)=O)nc4C)cc3)C2)ccn1 [Example 1.47] | 120
22 | C[C@H](NC(=O)N(C)C)c1ccc(OC2CCN(c3ccnc(OCC4CC4(F)F)c3F)C2)cc1 (stereo partly shown) [Example 5.4] | 49
23 | CC(=O)N[C@@H](C)c1ccc(O[C@@H]2CCN(c3cccc(N(C)C4CCOCC4)n3)C2)cc1 [Example 10.39] | 360
24 | CCCOc1nccc(N2CC[C@@H](Oc3ccc([C@H](C)NC(C)=O)cc3)C2)c1OC [Example 1.121] | 41
25 | CC(=O)N[C@@H](C)c1ccc(O[C@@H]2CCN(c3ccnc(OCC4CC4C)c3)C2)cc1 (stereo partly shown) [Example 9.23] | 45
26 | CCOc1cc(N2CC[C@@H](Oc3ccc([C@H](C)NC(=O)C4CC4)cc3)C2)ccn1 [Example 9.38] | 510
27 | COC(=O)N[C@@H](C)c1ccc(O[C@@H]2CCN(c3ccc(OC[C@H]4CC4(F)F)cn3)C2)cc1 [Example 4.1, Methyl (S)-1-(4-((R)-1-(5-(((R)-2,2-difluorocyclopropyl)methoxy)pyridin-2-yl)pyrrolidin-3-yloxy)phenyl)ethylcarbamate] | 39
28 | CC(C)Oc1cc(N2CCC(Oc3ccc([C@H](C)NC(=O)C(C)(F)F)cc3)C2)ccn1 (stereo partly shown) [Example 2.29] | 267
29 | CC(=O)N[C@@H](C)c1ccc(O[C@@H]2CCN(c3ccnc(OCC(C)C)c3C)C2)cc1 [Example 9.58] | 55
30 | CCN(C)c1ccnc(N2CC[C@@H](Oc3ccc([C@H](C)NC(C)=O)cc3)C2)c1F [Example 1.97] | 970
31 | CCOc1cnc(N2CCC(Oc3ccc([C@H](C)NC(C)=O)cc3)C2)c(Cl)c1 (stereo partly shown) [Example 1.78] | 198
32 | CC(=O)N[C@@H](C)c1ccc(O[C@@H]2CCN(c3nccc(N(C)CC4CC4)c3F)C2)cc1 [Example 1.100] | 385
33 | C[C@H](NC(=O)[C@@H](C)O)c1ccc(OC2CCN(c3ccnc(OCC4CC4)c3)C2)cc1 (stereo partly shown) [Example 2.78] | 799
34 | CC(=O)N[C@@H](C)c1ccc(OC2CCN(c3ncc(OCC4CC4(F)F)cc3Cl)C2)cc1 (stereo partly shown) [Example 1.77] | 29
35 | CCCNc1nccc(N2CCC(Oc3ccc([C@H](C)NC(=O)OC)cc3)C2)c1F (stereo partly shown) [Example 4.8] | 77

More lines, in order of falling IC50, values ahead:

Row | IC50 [nM] | SMILES
36 | 873 | CC(C)Oc1cc(N2CCC(Oc3ccc([C@H](C)NC(=O)c4ccncc4)cc3)C2)ccn1 (stereo partly shown) [Example 2.9]
37 | 759 | COC1CCN(c2cccc(N3CC[C@@H](Oc4ccc([C@H](C)NC(C)=O)cc4)C3)n2)CC1 [Example 10.42]
38 | 523 | C[C@H](NC(=O)c1cnc(N)o1)c1ccc(OC2CCN(c3ccnc(OCC(F)F)c3)C2)cc1 (stereo partly shown) [Example 2.103]
39 | 394 | CC(=O)N[C@@H](C)c1ccc(OC2CCN(c3ccc(OCC4CC4)nc3)C2)cc1 (stereo partly shown) [Example 1.14]
40 | 379 | CCCOc1cc(N2CCC(Oc3ccc([C@H](C)NC(C)=O)cc3)C2)c(C)cn1 (stereo partly shown) [Example 1.90]
41 | 315 | CCC(=O)N[C@@H](C)c1ccc(OC2CCN(c3cccc(C(F)(F)F)n3)C2)cc1 (stereo partly shown) [Example 2.41]
42 | 310 | C[C@H](NC(=O)N1CCOCC1)c1ccc(OC2CCN(c3ccnc(OCC4CC4(F)F)c3F)C2)cc1 (stereo partly shown) [Example 5.5]
43 | 154 | CC(=O)N[C@@H](C)c1ccc(OC2CCN(c3ncc(OCC4CC4)cc3C)C2)cc1 (stereo partly shown) [Example 1.41]
44 | 142 | COCCN(C)c1cccc(N2CC[C@@H](Oc3ccc([C@H](C)NC(C)=O)cc3)C2)n1 [Example 10.28]
45 | 132 | COC(C)(C)COc1nccc(N2CC[C@@H](Oc3ccc([C@H](C)NC(C)=O)cc3)C2)c1Cl [Example 9.79]
46 | 99 | C[C@H](NC(=O)c1ccon1)c1ccc(OC2CCN(c3ccnc(OCC4CC4)c3)C2)cc1 (stereo partly shown) [Example 2.70]
47 | 88 | CCCOc1cnc(N2CCC(Oc3ccc([C@H](C)NC(C)=O)cc3)C2)c(Cl)c1 (stereo partly shown) [Example 1.71]
48 | 85 | C[C@H](NC(=O)C1(C#N)CC1)c1ccc(OC2CCN(c3ccnc(OCC4CC4)c3)C2)cc1 (stereo partly shown) [Example 2.65]
49 | 80 | CC(=O)N[C@@H](C)c1ccc(O[C@@H]2CCN(c3ccnc(OC(C)C)c3F)C2)cc1 [Example 9.83]
50 | 72 | C[C@H](NC(=O)C1(C)CC1)c1ccc(OC2CCN(c3ccnc(N4CCC(F)(F)C4)c3F)C2)cc1 (stereo partly shown) [Example 2.124]
51 | 67 | CCC(=O)Nc1nc(C)c(C(=O)N[C@@H](C)c2ccc(O[C@@H]3CCN(c4ccnc(NCC5CC5)c4F)C3)cc2)s1 [Example 1.142]
52 | 58 | CC(=O)Nc1nc(C)c(C(=O)N[C@@H](C)c2ccc(OC3CCN(c4ccnc(N5CCC(F)(F)C5)c4F)C3)cc2)s1 (stereo partly shown) [Example 2.123]
